What follows are molecules tested on breast cancer cell line MX-1 (assay: MX-1 cell line proliferation assay, Method A). Conditions: Homo sapiens, MX1; MX-1 cells, 96-well, 72 hours, Cell Titer Glo; read-out: Cellular proliferation: EC50 Method A.
Type: cell-based
Protocol: The impact of compounds of the Examples on cancer cell proliferation was determined using the breast cancer cell line MX-1 (ATCC) in a 3-day proliferation assay and the data are reported in Table 1.
MX-1 cells were maintained in RPMI 1640 medium (Sigma) supplemented with 10% FBS at 37° C. and an atmosphere of 5% CO2. For compound testing, MX-1 cells were plated in 96-well black bottom plates at a density of 5000 cells/well in 90 μL of culture media and incubated at 370 overnight to allow cell adhesion and spreading. Compound dilution series were prepared in DMSO via a 3-fold serial dilution from 3 mM to 0.1 μM. The DMSO dilution series were then diluted 1:100 in phosphate buffered saline, and 10 μL of the resulted solution were added to the appropriate wells of the MX-1 cell plate. The final compound concentrations in the wells were 3, 1, 0.3, 0.1, 0.03, 0.01, 0.003, 0.001, 0.0003 and 0.0001 μM.
Luminescence readings from the Cell Titer Glo assay were normalized to the DMSO treated cells and analyzed using the GraphPad Prism software with sigmoidal curve fitting to obtain ECs50s. The minimum significant ratio (MSR) was determined to evaluate assay reproducibility (Eastwood et al., (2006) J Biomol Screen, 11: 253-261).

Compared with `CCS(=O)(=O)Nc1cc(-c2cn(C)c(=O)c3[nH]ccc23)c(Oc2ccc(F)cc2F)cc1C(=O)NC1CCOCC1` [Example 12, 5-(2,4-difluorophenoxy)-2-[(ethylsulfonyl)amino]-4-(6-methyl-7-oxo-6,7-dihydro-1H-pyrrolo[2,3-c]pyridin-4-yl)-N-(tetrahydro-2H-pyran-4-yl)benzamide], `CCS(=O)(=O)Nc1cc(-c2cn(C)c(=O)c3[nH]ccc23)c(Oc2ccc(F)cc2F)cc1CNCCO` [Example 13, N-[4-(2,4-difluorophenoxy)-2-{[(2-hydroxyethyl)amino]methyl}-5-(6-methyl-7-oxo-6,7-dihydro-1H-pyrrolo[2,3-c]pyridin-4-yl)phenyl]ethanesulfonamide] is 4.5-fold higher in EC50: 68.4 nM for the first, 307 nM for the second.

Going from `CCS(=O)(=O)Nc1cc(-c2cn(C)c(=O)c3[nH]ccc23)c(Oc2ccc(F)cc2F)cc1CN1CCCC1c1ccccc1` (centres unmarked) [Example 14, N-{4-(2,4-difluorophenoxy)-5-(6-methyl-7-oxo-6,7-dihydro-1H-pyrrolo[2,3-c]pyridin-4-yl)-2-[(2-phenylpyrrolidin-1-yl)methyl]phenyl}ethanesulfonamide] to `CCS(=O)(=O)Nc1cc(-c2cn(C)c(=O)c3[nH]ccc23)c(Oc2ccc(F)cc2F)c(C2CC2)c1` [Example 15, N-[3-cyclopropyl-4-(2,4-difluorophenoxy)-5-(6-methyl-7-oxo-6,7-dihydro-1H-pyrrolo[2,3-c]pyridin-4-yl)phenyl]ethanesulfonamide], the EC50 falls from 184 nM to 105 nM (1.8-fold).

Compared with `CCS(=O)(=O)c1ccc(OCC2CC2(F)F)c(-c2cn(C)c(=O)c3[nH]c(CN4CCN(c5ccncc5)CC4)cc23)c1` (centres unmarked) [Example 16, 4-{2-[(2,2-difluorocyclopropyl)methoxy]-5-(ethylsulfonyl)phenyl}-6-methyl-2-{[4-(pyridin-4-yl)piperazin-1-yl]methyl}-1,6-dihydro-7H-pyrrolo[2,3-c]pyridin-7-one], `CCS(=O)(=O)c1ccc(OCC2CC2(F)F)c(-c2cn(C)c(=O)c3[nH]c(CN4CCN(c5cccnc5)CC4)cc23)c1` (centres unmarked) [Example 20, 4-{2-[(2,2-difluorocyclopropyl)methoxy]-5-(ethylsulfonyl)phenyl}-6-methyl-2-{[4-(pyridin-3-yl)piperazin-1-yl]methyl}-1,6-dihydro-7H-pyrrolo[2,3-c]pyridin-7-one] is 2-fold lower in EC50: 202 nM for the first, 101 nM for the second.

Going from `Cn1cc(-c2cc(S(C)(=O)=O)ccc2Oc2cccc(C(=O)NC3CC3)c2)c2cc[nH]c2c1=O` [Example 21, N-cyclopropyl-3-[2-(6-methyl-7-oxo-6,7-dihydro-1H-pyrrolo[2,3-c]pyridin-4-yl)-4-(methylsulfonyl)phenoxy]benzamide] to `Cn1cc(-c2cc(S(C)(=O)=O)ccc2Oc2cccc(C(=O)NC3CCCCC3)c2)c2cc[nH]c2c1=O` [Example 25, N-cyclohexyl-3-[2-(6-methyl-7-oxo-6,7-dihydro-1H-pyrrolo[2,3-c]pyridin-4-yl)-4-(methylsulfonyl)phenoxy]benzamide], the EC50 falls from 487 nM to 134 nM (3.6-fold).

`CN1CCN(C(=O)c2cccc(Oc3ccc(S(C)(=O)=O)cc3-c3cn(C)c(=O)c4[nH]ccc34)c2)CC1` [Example 22, 6-methyl-4-[2-{3-[(4-methylpiperazin-1-yl)carbonyl]phenoxy}-5-(methylsulfonyl)phenyl]-1,6-dihydro-7H-pyrrolo[2,3-c]pyridin-7-one] and `CC(=O)N1CCN(C(=O)c2cccc(Oc3ccc(S(C)(=O)=O)cc3-c3cn(C)c(=O)c4[nH]ccc34)c2)CC1` [Example 30, 4-[2-{3-[(4-acetylpiperazin-1-yl)carbonyl]phenoxy}-5-(methylsulfonyl)phenyl]-6-methyl-1,6-dihydro-7H-pyrrolo[2,3-c]pyridin-7-one] cannot be ordered by EC50: greater than 1000 nM for the first, greater than 1000 nM for the second.

`Cn1cc(-c2cc(S(C)(=O)=O)ccc2Oc2cccc(C(=O)N3CCN(CCn4ccnc4)CC3)c2)c2cc[nH]c2c1=O` [Example 23, 4-{2-[3-({4-[2-(1H-imidazol-1-yl)ethyl]piperazin-1-yl}carbonyl)phenoxy]-5-(methylsulfonyl)phenyl}-6-methyl-1,6-dihydro-7H-pyrrolo[2,3-c]pyridin-7-one] and `CN(C)CCN1CCN(C(=O)c2cccc(Oc3ccc(S(C)(=O)=O)cc3-c3cn(C)c(=O)c4[nH]ccc34)c2)CC1` [Example 29, 4-{2-[3-({4-[2-(dimethylamino)ethyl]piperazin-1-yl}carbonyl)phenoxy]-5-(methylsulfonyl)phenyl}-6-methyl-1,6-dihydro-7H-pyrrolo[2,3-c]pyridin-7-one] cannot be ordered by EC50: greater than 1000 nM for the first, greater than 1000 nM for the second.

Going from `Cn1cc(-c2cc(S(C)(=O)=O)ccc2Oc2cccc(C(=O)N3CCC(N4CCCC4)CC3)c2)c2cc[nH]c2c1=O` [Example 24, 6-methyl-4-[5-(methylsulfonyl)-2-(3-{[4-(pyrrolidin-1-yl)piperidin-1-yl]carbonyl}phenoxy)phenyl]-1,6-dihydro-7H-pyrrolo[2,3-c]pyridin-7-one] to `Cn1cc(-c2cc(S(C)(=O)=O)ccc2Oc2cccc(C(=O)N3CCN(C4CCCC4)CC3)c2)c2cc[nH]c2c1=O` [Example 28, 4-[2-{3-[(4-cyclopentylpiperazin-1-yl)carbonyl]phenoxy}-5-(methylsulfonyl)phenyl]-6-methyl-1,6-dihydro-7H-pyrrolo[2,3-c]pyridin-7-one], the EC50 falls from greater than 1000 nM to 195 nM.

`Cn1cc(-c2cc(S(C)(=O)=O)ccc2Oc2cccc(C(=O)NCCCN3CCCC3=O)c2)c2cc[nH]c2c1=O` [Example 27, 3-[2-(6-methyl-7-oxo-6,7-dihydro-1H-pyrrolo[2,3-c]pyridin-4-yl)-4-(methylsulfonyl)phenoxy]-N-[3-(2-oxopyrrolidin-1-yl)propyl]benzamide] and `Cn1cc(-c2cc(S(C)(=O)=O)ccc2Oc2cccc(C(=O)NCCN3CCCC3)c2)c2cc[nH]c2c1=O` [Example 35, 3-[2-(6-methyl-7-oxo-6,7-dihydro-1H-pyrrolo[2,3-c]pyridin-4-yl)-4-(methylsulfonyl)phenoxy]-N-[2-(pyrrolidin-1-yl)ethyl]benzamide] are within 1.5-fold of each other in EC50: 442 nM for the first, 406 nM for the second.

Going from `Cn1cc(-c2cc(S(C)(=O)=O)ccc2Oc2cccc(C(=O)N3CCC(C(F)(F)F)CC3)c2)c2cc[nH]c2c1=O` [Example 31, 6-methyl-4-[5-(methylsulfonyl)-2-(3-{[4-(trifluoromethyl)piperidin-1-yl]carbonyl}phenoxy)phenyl]-1,6-dihydro-7H-pyrrolo[2,3-c]pyridin-7-one] to `Cn1cc(-c2cc(S(C)(=O)=O)ccc2Oc2cccc(C(=O)NC[C@H]3CCCO3)c2)c2cc[nH]c2c1=O` [Example 34, 3-[2-(6-methyl-7-oxo-6,7-dihydro-1H-pyrrolo[2,3-c]pyridin-4-yl)-4-(methylsulfonyl)phenoxy]-N-[(2R)-tetrahydrofuran-2-ylmethyl]benzamide], the EC50 falls from 443 nM to 155 nM (2.9-fold).

Compared with `CN(C)CCNC(=O)c1cccc(Oc2ccc(S(C)(=O)=O)cc2-c2cn(C)c(=O)c3[nH]ccc23)c1` [Example 33, N-[2-(dimethylamino)ethyl]-3-[2-(6-methyl-7-oxo-6,7-dihydro-1H-pyrrolo[2,3-c]pyridin-4-yl)-4-(methylsulfonyl)phenoxy]benzamide], `Cn1cc(-c2cc(S(C)(=O)=O)ccc2Oc2cccc(C(=O)NCc3cc(F)cc(F)c3)c2)c2cc[nH]c2c1=O` [Example 36, N-(3,5-difluorobenzyl)-3-[2-(6-methyl-7-oxo-6,7-dihydro-1H-pyrrolo[2,3-c]pyridin-4-yl)-4-(methylsulfonyl)phenoxy]benzamide] is lower in EC50: greater than 1000 nM for the first, 255 nM for the second. The second is the more potent here.

Reference: patent US10131657B2, “Bromodomain inhibitors” (AbbVie Inc., priority 2013, dated 2018)
